Test results taken from patent US9975870B2, “5,6-dimethoxy-1,1-dioxobenzo[b]thiophene-2-methyloxycarbonyl (DM-Bsmoc) and related amino-protecting groups” (MASSACHUSETTS, UNIVERSITY OF, priority 2013, dated 2018).

Test: Deblocking of substituted Bsmoc p-chloroaniline (R-Bsmoc-PCA) urethanes with piperidine, 1H-NMR monitoring
Format: physicochemical
Conditions: for t1/2 2 eq piperidine in CDCl3 (approximate half time for the reaction of R-Bsmoc-PCA urethane and piperidine): 2 eq piperidine in CDCl3, 1H-NMR analysis, approximate values
Excerpt: As an electron-withdrawing substituent the MeSO2 group also enhances the stability of the benzo[b]thiophene-2-methyl system toward acidic reagents and in addition enhances the speed of the deblocking step. […] Tables 1A and 1B show the approximate half times for the reaction of substituted Bsmoc p-chloroaniline derivatives with 2 eq of piperidine in CDCl3 according to ^1H-NMR analysis.
Tables 1A and 1B. Approximate half times for the reaction of R-Bsmoc-PCA urethane and piperidine

COc1cc2c(cc1OC)S(=O)(=O)C(COC(=O)Nc1ccc(Cl)cc1)=C2 [5,6-MeO-Bsmoc-PCA]
t1/2 2 eq piperidine in CDCl3 (approximate half time for the reaction of R-Bsmoc-PCA urethane and piperidine): 3 to 4 min

CS(=O)(=O)c1ccc2c(c1)S(=O)(=O)C(COC(=O)Nc1ccc(Cl)cc1)=C2 [6-MeSO2-Bsmoc-PCA]
t1/2 2 eq piperidine in CDCl3 (approximate half time for the reaction of R-Bsmoc-PCA urethane and piperidine): <1 min

CS(=O)(=O)c1ccc2c(c1)C=C(COC(=O)Nc1ccc(Cl)cc1)S2(=O)=O [5-MeSO2-Bsmoc-PCA]
t1/2 2 eq piperidine in CDCl3 (approximate half time for the reaction of R-Bsmoc-PCA urethane and piperidine): <1 min | speed of deblocking relative to the unsubstituted analog (Bsmoc-NHC6H4-Cl-p) (treatment with piperidine in CDCl3, NMR monitoring): about six times more readily

O=C(Nc1ccc(Cl)cc1)OCC1=Cc2ccccc2S1(=O)=O [Bsmoc-PCA, reference compound]
t1/2 2 eq piperidine in CDCl3 (approximate half time for the reaction of R-Bsmoc-PCA urethane and piperidine): 6 to 7 min

Cc1cccc2c1C=C(COC(=O)Nc1ccc(Cl)cc1)S2(=O)=O [4-Me-Bsmoc-PCA]
t1/2 2 eq piperidine in CDCl3 (approximate half time for the reaction of R-Bsmoc-PCA urethane and piperidine): 150 min

O=C(Nc1ccc(Cl)cc1)OCC1=Cc2cc([N+](=O)[O-])ccc2S1(=O)=O [5-NO2-Bsmoc-PCA]
t1/2 2 eq piperidine in CDCl3 (approximate half time for the reaction of R-Bsmoc-PCA urethane and piperidine): <1 min

CC(=O)Nc1ccc2c(c1)C=C(COC(=O)Nc1ccc(Cl)cc1)S2(=O)=O [5-Ac—NH-Bsmoc-PCA]
t1/2 2 eq piperidine in CDCl3 (approximate half time for the reaction of R-Bsmoc-PCA urethane and piperidine): 3 min

O=C(Nc1ccc(Cl)cc1)OCC1=Cc2ccc(Cl)cc2S1(=O)=O [6-Cl-Bsmoc-PCA]
t1/2 2 eq piperidine in CDCl3 (approximate half time for the reaction of R-Bsmoc-PCA urethane and piperidine): 2 min

CC1=C(COC(=O)Nc2ccc(Cl)cc2)S(=O)(=O)c2ccccc21 [3-Me-Bsmoc-PCA]
t1/2 2 eq piperidine in CDCl3 (approximate half time for the reaction of R-Bsmoc-PCA urethane and piperidine): 360 min

Cc1ccc2c(c1)C=C(COC(=O)Nc1ccc(Cl)cc1)S2(=O)=O [5-Me-Bsmoc-PCA]
t1/2 2 eq piperidine in CDCl3 (approximate half time for the reaction of R-Bsmoc-PCA urethane and piperidine): 6 to 7 min

O=C(Nc1ccc(Cl)cc1)OCC1=Cc2cc(Cl)ccc2S1(=O)=O [5-Cl-Bsmoc-PCA]
t1/2 2 eq piperidine in CDCl3 (approximate half time for the reaction of R-Bsmoc-PCA urethane and piperidine): 2 min
